Assay results from patent US7223753B2, “Diazabicyclic biaryl derivatives” (Neurosearch A/S, priority 2002, dated 2007).
pIC50: −log10 of the molar value. Counter-ions that a name gives are not always drawn.

Target: T1, α7-subtype of nicotinic receptors (Rattus norvegicus, UniProt Q05941)
T1 construct: Cerebral cortices from male Wistar rats (150–250 g) are homogenised; from tissue; host or cells: rat cerebral cortex membrane homogenate
Experiment: In vitro inhibition of 3H-α-bungarotoxine binding in rat brain
Details: rat cerebral cortex homogenate; 3H-α-bungarotoxine 2 nM; 2 hours at 37° C

T1 sequence (Q05941 23-502): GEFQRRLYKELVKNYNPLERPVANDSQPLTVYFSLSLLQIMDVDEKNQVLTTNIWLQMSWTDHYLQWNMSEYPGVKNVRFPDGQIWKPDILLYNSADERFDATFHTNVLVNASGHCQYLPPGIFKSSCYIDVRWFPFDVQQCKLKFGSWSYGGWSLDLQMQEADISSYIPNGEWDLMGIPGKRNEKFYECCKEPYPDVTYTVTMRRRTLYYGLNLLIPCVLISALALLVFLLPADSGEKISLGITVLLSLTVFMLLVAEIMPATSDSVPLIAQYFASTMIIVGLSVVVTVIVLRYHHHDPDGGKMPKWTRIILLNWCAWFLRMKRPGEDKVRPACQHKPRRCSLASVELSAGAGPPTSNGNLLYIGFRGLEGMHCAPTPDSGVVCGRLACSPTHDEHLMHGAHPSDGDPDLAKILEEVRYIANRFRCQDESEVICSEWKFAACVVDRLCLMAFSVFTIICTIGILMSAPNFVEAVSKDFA

Q: `c1cc(-c2ccc(N3CCN4CCC3CC4)nn2)cs1` [Compound 1, 4-[6-Thien-3-yl-pyridazin-3-yl]-1,4-diazabicyclo[3.2.2]nonane fumaric acid salt] was tested. Which pIC50 did it give?
A: 7.42

Q: How did the pIC50 turn out when `c1csc(-c2ccc(N3CCN4CCC3CC4)nn2)c1` [Compound 4, 4-(6-Thien-2-yl-pyridazin-3-yl)-1,4-diazabicyclo[3.2.2]nonane fumaric acid salt] was run?
A: 7.36

Q: How did the pIC50 turn out when `c1c[se]c(-c2ccc(N3CCN4CCC3CC4)nn2)c1` [Compound 5, 4-(6-Selenophen-2-yl-pyridazin-3-yl)-1,4-diazabicyclo[3.2.2]nonane fumaric acid salt] was run?
A: 8.19

Q: How did the pIC50 turn out when `c1cc(-c2ccc(N3CCN4CCC3CC4)nn2)co1` [Compound 7, 4-(6-Furan-3-yl-pyridazin-3-yl)-1,4-diazabicyclo[3.2.2]nonane fumaric acid salt] was run?
A: 7.66

Q: How did the pIC50 turn out when `c1ccc(-c2ccc(N3CCN4CCC3CC4)cc2)cc1` [Compound 34, 4-Biphenyl-4-yl-1,4-diazabicyclo[3.2.2]nonane fumaric acid salt] was run?
A: 7.62
